Experimental data as given in patent publication US12617752B2, “Rapidly metabolized lipid compound” (Beijing Jitai Life Sciences Ltd, priority 2023, dated 2026).

Assays:
[1] = Particle size and PDI of lipid nanoparticles by dynamic light scattering; assay type: physicochemical; conditions: lipid nanoparticles with luciferase mRNA; ionizable lipid/cholesterol/DSPC/DMG-PEG2000 50/38.5/10/1.5 mol%
Description: (§1) Lipid nanoparticles were prepared by (1) dissolving and mixing ionizable lipid compounds, cholesterol, phospholipids and polyethylene glycolated lipids in ethanol at (molar percentages) 50%, 38.5%, 10% and 1.5%, respectively; (2) dissolving the mRNA active ingredient in 25 mM sodium acetate solution (pH=4.5); (3) using an automated high-throughput microfluidic system to mix the organic phase containing the lipid mixture and the aqueous phase containing the mRNA component in the flow ratio range of 1:1 to 1:4 at a mixing speed of 10 mL/min to 18 mL/min; (4) the prepared lipid nanoparticles (N/P ratio=6) were diluted with phosphate buffer solution and the nanoparticle solutions were ultrafiltered to the original preparation volume using ultrafiltration tubes (purchased from Millipore) with a cut-off molecular weight of 30 kDa; and (5) the obtained nanoparticles were filtered through a sterile 0.2 μm filter membrane and then stored in a sealed glass vial at low temperature.
(§2) The particle size and particle size dispersity index (PDI) of the prepared lipid nanoparticles were measured using a Zetasizer Pro (purchased from Malvern Instruments Ltd) and a DynaPro NanoStar (purchased from Wyatt) dynamic light scattering instrument. The degree of RNA encapsulation by lipid nanoparticles was characterized by the Encapsulation Efficiency %, which reflects the degree of binding of lipid nanoparticles to RNA fragments. This parameter was measured by the method of Quant-it™ RiboGreen RNA Assay (purchased from Invitrogen). Lipid nanoparticle samples were diluted in TE buffer (10 mM Tris-HCl, 1 mM EDTA, pH=7.5). A portion of the sample solution was removed, to which 0.5% Triton (Triton X-100) was added, and then allowed to stand at 37° C. for 30 minutes. Immediately after the addition of RIBOGREEN® reaction solution, the fluorescence values were read on a Varioskan LUX multifunctional microplate reader (purchased from Thermofisher) at 485 nm for absorption and 528 nm for emission to give the encapsulation efficiency values.

[2] = Encapsulation efficiency of lipid nanoparticles (Quant-it RiboGreen RNA Assay); assay type: physicochemical; conditions: lipid nanoparticles with luciferase mRNA
Description: as §1, §2

C57BL/6 mice = assay: In vivo delivery of luciferase mRNA lipid nanoparticles in mice (bioluminescence imaging); conditions: intravenous, single dose 0.5 mg/kg luciferase mRNA
Description: The delivery effect and safety of nanoparticles encapsulated with luciferase mRNA (Trilink, L-7202) in mice were evaluated. The test mice were SPF-grade C57BL/6 mice, female, 6-8 weeks old, weighing 18-22 g, and were purchased from SPF (Beijing) Biotechnology Co., Ltd. All animals were acclimatized for more than 7 days prior to the experiment, and had free access to food and water during the experiment. The conditions include alternating light and dark for 12/12 h, the indoor temperature of 20-26° C. and the humidity of 40-70%. The mice were randomly grouped. The lipid nanoparticles encapsulated with luciferase mRNA prepared above were injected into mice by intravenous administration at a single dose of 0.5 mg/kg mRNA, and the mice were subjected to in vivo bioluminescence assay using a Small Animal In Vivo Imaging System (IVIS LUMINA III, purchased from PerkinElmer) at 6 h after administration. The assay was performed as follows: D-luciferin solution was prepared in saline at a concentration of 15 mg/mL, and each mouse was given the substrate by intraperitoneal injection. At ten minutes after administration of the substrate, the mice were anesthetized in an anesthesia chamber with isoflurane at a concentration of 2.5%. The anesthetized mice were placed in IVIS for fluorescence imaging, and data acquisition and analysis were performed on the concentrated distribution area of fluorescence.
The in vivo delivery efficiency of lipid nanoparticle carriers was expressed as the mean values of fluorescence intensity and total photon count in different animals within the same subject group, as shown in Table 5-Table 11. Higher values of fluorescence intensity and total photon count indicate higher in vivo delivery efficiency of this mRNA fragment by lipid nanoparticles. The lipid nanoparticles containing the cationic lipids of the present disclosure have good in vivo delivery efficiency.

SMILES	Particle size (nm) [1] [nm]	Particle-size distribution (PDI) [1]	Encapsulation efficiency (%) [2] [%]	Total photon count in vivo at 6 hours after administration (Total Flux) (C57BL/6 mice)
CCCCCCCCCC(=O)OCC(C)(C)CCCCCN(CCCO)CCCCCCCC(=O)OC(CCCCCCCC)CCCCCCCC [2b]	104.61	0.013	80.17	8.31E+10
CCCCCCCCCCCOC(=O)CCCCCN(CCO)CCCCCCC(C)(C)C(=O)OC(CCCCCCCC)CCCCCCCC [3a]	89.72	0.021	94.23	1.03E+11
CCCCCCCCCOC(=O)CCCCCCCN(CCO)CCCCCCC1(C(=O)OC(CCCCCCCC)CCCCCCCC)CC1 [6a]	90.67	0.018	87.22	2.88E+10
CCCCCCCCCC(=O)OCCCCCCCN(CCO)CCCCCCC(C)(C)C(=O)OC(CCCCCCCC)CCCCCCCC [6b]	99.55	0.029	80.01	7.42E+10
CCCCCCCCCOC(=O)CCCCCCCN(CCO)CCCCCCC(C)(C)C(=O)OCCC(CCCCCC)CCCCCC [7a]				5.26E+10
CCCCCCCCC(CCCCCCCC)OC(=O)C(C)(C)CCCCCCN(CCO)CCCCCCCOC(=O)CCCC(CCCCC)CCCCC [7b]	101.67	0.030	88.68	2.00E+10
CCCCCCCCCOC(=O)CCCCCCCN(CCO)CCCCCC(C)(C)CC(=O)OC(CCCCCCCC)CCCCCCCC [9a]	103.03	0.031	89.64	2.06E+10
CCCCCCCCCOC(=O)CCCCCCCN(CCO)CCCC(C)(C)CCC(=O)OC(CCCCCCCC)CCCCCCCC [10a]	131.09	0.032	89.69	7.08E+10
CCCCCCCCCCCOC(=O)CCCCCN(CCCO)CCCCCCC(C)(C)C(=O)OC(CCCCCCCC)CCCCCCCC [11a]	98.01	0.021	89.36	2.05E+10
CCCCCCCCCCCOC(=O)CCCCCN(CCCCO)CCCCCCC(C)(C)C(=O)OC(CCCCCCCC)CCCCCCCC [12a]	104.85	0.021	85.24	1.39E+10
CCCCCCCCCCCOC(=O)CCCCCN(CCO)CCCCCCC1(C(=O)OC(CCCCCCCC)CCCCCCCC)CC1 [13a]	110.20	0.018	92.96	5.01E+10
CCCCCCCCCCCOC(=O)CCCCCN(CCO)CCCCCCC(C)(C)C(=O)OCC(CCCCCCC)CCCCCCC [14a]	90.99	0.012	91.67	1.09E+11
CCCCCCCCCC(=O)OCC1(CCCCCN(CCO)CCCCCCCC(=O)OC(CCCCCCCC)CCCCCCCC)CC1 [14b]	99.73	0.013	83.54	1.05E+11
CCCCCCCCCCCOC(=O)CCCCCN(CCO)CCCCCCC(C)(C)C(=O)OCCC(CCCCCC)CCCCCC [15a]	95.94	0.021	90.77	4.15E+10
CCCCCCCCCC(=O)OCC1(CCCCCN(CCCCO)CCCCCCCC(=O)OC(CCCCCCCC)CCCCCCCC)CC1 [15b]	120.27	0.015	69.69	8.22E+10
CCCCCCCCCCC(=O)OCC(C)(C)CCCCCN(CCO)CCCCCCCC(=O)OC(CCCCCCCCC)CCCCCCCCC [16b]	101.90	0.028	89.09	1.28E+11
CCCCCCCCCCC(=O)OCC(C)(C)CCCCCN(CCCCO)CCCCCCCC(=O)OC(CCCCCCCCC)CCCCCCCCC [17b]	109.87	0.030	87.72	1.74E+11
CCCCCCCCCCOC(=O)CCCCCCCN(CCO)CCCCCC(C)(C)COC(=O)C(CCCCCCCC)CCCCCCCC [18b]	100.46	0.037	89.34	3.91E+10
CCCCCCCCCCCOC(=O)CCCCCN(CCO)CCCCCC(C)(C)CC(=O)OC(CCCCCCCC)CCCCCCCC [19a]	109.37	0.035	87.90	4.73E+10
CCCCCCCCCCOC(=O)CCCCCCCN(CCO)CCCCCC(C)(C)COC(=O)CC(CCCCCCC)CCCCCCC [19b]	109.53	0.036	83.01	6.13E+10
CCCCCCCCCCOC(=O)CCCCCCCN(CCO)CCCCCC(C)(C)COC(=O)CCC(CCCCCC)CCCCCC [20b]	107.83	0.032	87.69	4.82E+10
CCCCCCCCC(CCCCCCCC)OC(=O)C(C)(C)CCCCCCN(CCO)CCCCCC(=O)OCCCCCCCCCC(C)C [21a]	110.00	0.016	88.37	8.84E+10
CCCCCCCCCCC(=O)OCC1(CCCCCN(CCO)CCCCCCCC(=O)OC(CCCCCCCCC)CCCCCCCCC)CC1 [21b]	94.58	0.051	92.37	4.95E+10
